Test results as given in the NIST ThermoML archive (doi:10.1016/j.fluid.2014.12.027).
± gives the expanded uncertainty stated by the source.

conditions: 298 K; 101.33 kPa; Liquid; Vibrating tube method

With `CCCCCCCCCC` [decane] as the compound, how does the mass density read?
The mass density was 722.439 ± 0.28 kg/m3.

Which mass density does the source give for `OCCOCCO` [diethylene glycol] here?
Its mass density is 1109.16 ± 0.34 kg/m3.

For `Cc1ccccc1` [toluene], which mass density is on record?
The mass density was 857.606 ± 0.19 kg/m3.

Which mass density does the source give for `OCCOCCOCCO` [triethylene glycol] here?
Its mass density is 1116.05 ± 0.34 kg/m3.
